In patent US12600728B2, “Interleukin-17 inhibitors” (priority 2020, dated 2026):
Like-named read-outs stand apart in the source and are kept apart here.

Tests used:
[1] = biological target: biotinylated human IL-17A / AF647-labeled human IL-17RA (Homo sapiens, UniProt Q16552); experiment: Human IL-17A×IL-17RA TR-FRET assay; assay type: binding
In short: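 Compounds tested in duplicate at each concentration; neutral controls contain all components with DMSO in place of compound.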

[2] = biological target: recombinant human IL-17AA (Homo sapiens, UniProt Q16552); experiment: IL-6 release from NHDF cells, IL-17AA plus TNF-α stimulation; assay type: cell-based; settings: 24 hours, IL-6 by ELISA
Chain of recombinant human IL-17AA (Q16552 24-155): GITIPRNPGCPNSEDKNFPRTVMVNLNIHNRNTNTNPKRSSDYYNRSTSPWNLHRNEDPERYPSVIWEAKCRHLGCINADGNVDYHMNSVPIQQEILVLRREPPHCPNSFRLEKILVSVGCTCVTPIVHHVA
In short: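 ELISA measured IL-6 in supernatants after 24 h at 37° C of NHDF cells with a compound/cytokine cocktail, pre-mixed 30 min at room temperature. Duplicates; 0.1% DMSO or 20% plasma final. IC50 from IL-6 remaining after subtracting the TNF-α-alone signal.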

[3] = TR-FRET, biotinylated human IL-17A 5 nM, AF647-labeled human IL-17RA 30 nM, read-out: IL17AA FRET/ IL17Rawt IC50
[4] = NHDF cells, IL-17AA 30 pM plus TNF-α 6 pM, read-out: IL17AA + TNF IC50 IL-6
[5] = TR-FRET, 5 nM IL-17A, 30 nM IL-17RA, reference examples (pyridines), read-out: IL17AA FRET/ IL17RAwt IC50
[6] = NHDF cells, IL-17AA 30 pM + TNF-α 6 pM, reference examples (pyridines), read-out: IL 17AA + TNF IC50 IL-6
[7] = TR-FRET, 5 nM IL-17A, 30 nM IL-17RA, read-out: IL17AA FRET/ IL17Rawt IC50
[8] = NHDF cells, IL-17AA 30 pM + TNF-α 6 pM, read-out: IL17AA + TNF IC50 IL-6

Chain of biotinylated human IL-17A / AF647-labeled human IL-17RA (Q16552 24-155): as above

Row | Structure (SMILES) | IC50 [1, 3] | IC50 [2, 4] | further results
1 | Cc1c(-c2cc(F)c(NC(=O)[C@@H](NC(=O)c3ccnn3C)C3CCCCC3)cc2F)c(Cl)cc[n+]1[O-] [Example 63, 4-chloro-3-(4-((S)-2-cyclohexyl-2-(1-methyl-1H-pyrazole-5-carboxamido)acetamido)-2,5-difluorophenyl)-2-methylpyridine 1-oxide] | 247 nM | 57 nM | 
2 | Cc1cc[n+]([O-])c(C)c1-c1ccc(NC(=O)C(NC(=O)c2ccc3n2CCN(C)C3)C2CCC(C)CC2)cc1 [Example 121, 2,4-dimethyl-3-(4-((S)-2-(2-methyl-1,2,3,4-tetrahydropyrrolo[1,2-a]pyrazine-6-carboxamido)-2-((1r,4S)-4-methylcyclohexyl)acetamido)phenyl)pyridine 1-oxide] | 111 nM | 17 nM | 
3 | Cc1c(-c2ccc(NC(=O)[C@@H](NC(=O)c3ccnn3C)C3CC=C(F)CC3)cc2)c(Cl)cc[n+]1[O-] (stereo partly drawn) [Example 55, 4-chloro-3-(4-((2S)-2-(4-fluorocyclohex-3-en-1-yl)-2-(1-methyl-1H-pyrazole-5-carboxamido)acetamido)phenyl)-2-methylpyridine 1-oxide] | 38 nM | 27 nM | 
4 | Cc1cc[n+]([O-])c(C)c1-c1ccc(NC(=O)[C@H](Cc2ccccc2F)NC(=O)c2conc2C)cc1 [Example 72, (S)-3-(4-(3-(2-fluorophenyl)-2-(3-methylisoxazole-4-carboxamido)propanamido)phenyl)-2,4-dimethylpyridine 1-oxide] | 454 nM | 3400 nM | 
5 | CCn1nccc1C(=O)NC(C(=O)Nc1ccc(-c2c(Cl)cc[n+]([O-])c2C)c(F)c1)C1CCC(F)(F)CC1 (stereo not shown) [Example 108, 4-chloro-3-(4-(2-(4,4-difluorocyclohexyl)-2-(1-ethyl-1H-pyrazole-5-carboxamido)acetamido)-2-fluorophenyl)-2-methylpyridine 1-oxide] |  |  | IC50 ([1]; IL17AA FRET/ IL17Rawt IC50, TR-FRET, biotinylated human IL-17A 5 nM, AF647-labeled human IL-17RA 30 nM): 30 nM; IC50 ([2]; IL17AA + TNF IC50 IL-6, NHDF cells, IL-17AA 30 pM plus TNF-α 6 pM): 7 nM
6 | Cc1ccnc(C)c1-c1ccc(NC(=O)[C@@H](NC(=O)c2ccnn2C)[C@H]2CC[C@H](C)CC2)cc1 [compound 138, N-((S)-2-((4-(2,4-dimethylpyridin-3-yl)phenyl)amino)-1-((1r,4S)-4-methylcyclohexyl)-2-oxoethyl)-1-methyl-1H-pyrazole-5-carboxamide, reference compound] |  |  | IC50 [1, 5]: 552 nM; IC50 [2, 6]: 55 nM
7 | Cc1cc[n+]([O-])c(C)c1-c1ccc(NC(=O)[C@@H](NC(=O)c2cnn(C)c2C)C2CCCCC2)cc1 [Example 167, (S)-3-(4-(2-cyclohexyl-2-(1,5-dimethyl-1H-pyrazole-4-carboxamido)acetamido)phenyl)-2,4-dimethylpyridine 1-oxide] |  |  | IC50 [1, 7]: 155 nM; IC50 [2, 8]: 210 nM
8 | Cc1ccnc(C)c1-c1ccc(NC(=O)[C@@H](NC(=O)c2ccnn2C)[C@@H]2CC=C(F)CC2)cc1 [compound 144, N-((S)-2-((4-(2,4-dimethylpyridin-3-yl)phenyl)amino)-1-((S)-4-fluorocyclohex-3-en-1-yl)-2-oxoethyl)-1-methyl-1H-pyrazole-5-carboxamide, reference compound] |  |  | IC50 [1, 5]: 4180 nM; IC50 [2, 6]: 715 nM
9 | Cc1cc[n+]([O-])c(C)c1-c1ccc(NC(=O)[C@@H](NC(=O)c2ccc3n2CCN(C)C3)C2CCCCCC2)nc1 [Example 149, (S)-6′-(2-cycloheptyl-2-(2-methyl-1,2,3,4-tetrahydropyrrolo[1,2-a]pyrazine-6-carboxamido)acetamido)-2,4-dimethyl-[3,3′-bipyridine] 1-oxide] |  |  | IC50 [1, 7]: 118 nM; IC50 [2, 8]: 59 nM
10 | Cc1c(-c2c(F)cc(NC(=O)[C@@H](NC(=O)c3ccnn3C)C3CCCCC3)cc2F)c(Cl)cc[n+]1[O-] [Example 61, (S)-4-chloro-3-(4-(2-cyclohexyl-2-(1-methyl-1H-pyrazole-5-carboxamido)acetamido)-2,6-difluorophenyl)-2-methylpyridine 1-oxide] | 18 nM | 16 nM | 
11 | Cc1cc[n+]([O-])c(C)c1-c1ccc(NC(=O)C(NC(=O)c2ccnn2C)C2CCCCC(F)(F)C2)cc1 (stereo not shown) [Example 156, 3-(4-(2-(3,3-difluorocycloheptyl)-2-(1-methyl-1H-pyrazole-5-carboxamido)acetamido)phenyl)-2,4-dimethylpyridine 1-oxide] |  |  | IC50 [1, 7]: 110 nM; IC50 [2, 8]: 51.5 nM
12 | CCn1nccc1C(=O)N[C@H](C(=O)Nc1ccc(-c2c(C(F)(F)F)cc[n+]([O-])c2C)cc1)[C@H]1CCCC(F)(F)C1 [Example 10, 3-(4-((S)-2-((S)-3,3-difluorocyclohexyl)-2-(1-ethyl-1H-pyrazole-5-carboxamido)acetamido)phenyl)-2-methyl-4-(trifluoromethyl)pyridine 1-oxide] | 93 nM | 11 nM | 
13 | Cc1nocc1C(=O)NC(C(=O)Nc1ccc(-c2c(Cl)cc[n+]([O-])c2C)c(F)c1)[C@H]1C[C@@H]2C[C@@H]2C1 (stereo partly drawn) [Example 57, 3-(4-(2-((1R,3s,5S)-bicyclo[3.1.0]hexan-3-yl)-2-(3-methylisoxazole-4-carboxamido)acetamido)-2-fluorophenyl)-4-chloro-2-methylpyridine 1-oxide] | 37 nM | 12 nM | 
14 | Cc1c(-c2ccc(NC(=O)[C@@H](NC(=O)c3ccc4n3CCN(C)C4)C3CCCCC3)cc2F)c(Cl)cc[n+]1[O-] [Example 124, 4-chloro-3-(4-((S)-2-cyclohexyl-2-(2-methyl-1,2,3,4-tetrahydropyrrolo[1,2-a]pyrazine-6-carboxamido)acetamido)-2-fluorophenyl)-2-methylpyridine 1-oxide] | 172 nM | 8 nM | 
15 | CCc1nocc1C(=O)N[C@H](C(=O)Nc1ccc(-c2c(C(F)(F)F)ccnc2C)cc1)C1CCCC1 [compound 139, (S)-N-(1-cyclopentyl-2-((4-(2-methyl-4-(trifluoromethyl)pyridin-3-yl)phenyl)amino)-2-oxoethyl)-3-ethylisoxazole-4-carboxamide, reference compound] |  |  | IC50 [1, 5]: 899 nM; IC50 [2, 6]: 152 nM
16 | Cc1c(-c2ccc(NC(=O)C(NC(=O)c3ccnn3C)C3CCC(C(F)(F)F)CC3)cc2)c(Cl)cc[n+]1[O-] [Example 18, 4-chloro-2-methyl-3-(4-((S)-2-(1-methyl-1H-pyrazole-5-carboxamido)-2-((1r,4S)-4-(trifluoromethyl)cyclohexyl)acetamido)phenyl)pyridine 1-oxide] | 25 nM | 28 nM | 
17 | COCCn1nccc1C(=O)N[C@H](C(=O)Nc1ccc(-c2c(Cl)cc[n+]([O-])c2C)c(F)c1)C1CCCCC1 [Example 15, 4-chloro-3-(4-((S)-2-cyclohexyl-2-(1-(2-methoxyethyl)-1H-pyrazole-5-carboxamido)acetamido)-2-fluorophenyl)-2-methylpyridine 1-oxide] | 52 nM | 10 nM | 
18 | Cc1nocc1C(=O)N[C@H](C(=O)Nc1ccc(-c2c(Cl)cc[n+]([O-])c2C)c(F)c1)C1CCCCC1 [Example 14, 4-chloro-3-(4-((S)-2-cyclohexyl-2-(3-methylisoxazole-4-carboxamido)acetamido)-2-fluorophenyl)-2-methylpyridine 1-oxide] | 24 nM | 9 nM | 
19 | Cc1c(-c2ccc(NC(=O)[C@@H](NC(=O)c3ccnn3C)C3CCCCC3)c(F)c2)c(Cl)cc[n+]1[O-] [Example 59, (S)-4-chloro-3-(4-(2-cyclohexyl-2-(1-methyl-1H-pyrazole-5-carboxamido)acetamido)-3-fluorophenyl)-2-methylpyridine 1-oxide] | 49 nM | 56 nM | 
20 | Cc1c(-c2ccc(NC(=O)[C@@H](NC(=O)c3ccnn3C)C3CCCCC3)cc2)c(C(F)(F)F)cc[n+]1[O-] [Example 67, (S)-3-(4-(2-cyclohexyl-2-(1-methyl-1H-pyrazole-5-carboxamido)acetamido)phenyl)-2-methyl-4-(trifluoromethyl)pyridine 1-oxide] | 124 nM | 15 nM | 
21 | Cc1nocc1C(=O)N[C@H](C(=O)Nc1ccc(-c2cc(Cl)c[n+]([O-])c2C)cc1)C1CCC(F)(F)CC1 [Example 173, (S)-5-chloro-3-(4-(2-(4,4-difluorocyclohexyl)-2-(3-methylisoxazole-4-carboxamido)acetamido)phenyl)-2-methylpyridine 1-oxide] |  |  | IC50 [1, 7]: 659 nM; IC50 [2, 8]: 1680 nM
22 | CC(=O)N1CCn2c(ccc2C(=O)N[C@H](C(=O)Nc2ccc(-c3c(Cl)cc[n+]([O-])c3C)cc2F)C2CCCCC2)C1 [Example 184, (S)-3-(4-(2-(2-acetyl-1,2,3,4-tetrahydropyrrolo[1,2-a]pyrazine-6-carboxamido)-2-cyclohexylacetamido)-3-fluorophenyl)-4-chloro-2-methylpyridine 1-oxide] |  |  | IC50 [1, 7]: 59.9 nM; IC50 [2, 8]: 11 nM
23 | CCc1nocc1C(=O)N[C@H](C(=O)Nc1ccc(-c2c(C)cc[n+]([O-])c2C)cc1)[C@@H]1CC=C(F)CC1 [Example 28, 3-(4-((S)-2-(3-ethylisoxazole-4-carboxamido)-2-((S)-4-fluorocyclohex-3-en-1-yl)acetamido)phenyl)-2,4-dimethylpyridine 1-oxide] | 20 nM | 22 nM | 
